Results taken from ChEMBL document CHEMBL1130488, “1,4-Diaryl-2-oxo-1,2-dihydro-quinoline-3-carboxylic acids as endothelin receptor antagonists” (Bioorg Med Chem Lett, 1997).

Key:
[1] = biological target: T1, Endothelin-1 receptor (Rattus norvegicus, UniProt P26684); test: Inhibition of [125I]ET1 binding to rat aorta membranes(ETA); assay type: cell membranes, Membrane
T1 sequence (P26684 whole entry): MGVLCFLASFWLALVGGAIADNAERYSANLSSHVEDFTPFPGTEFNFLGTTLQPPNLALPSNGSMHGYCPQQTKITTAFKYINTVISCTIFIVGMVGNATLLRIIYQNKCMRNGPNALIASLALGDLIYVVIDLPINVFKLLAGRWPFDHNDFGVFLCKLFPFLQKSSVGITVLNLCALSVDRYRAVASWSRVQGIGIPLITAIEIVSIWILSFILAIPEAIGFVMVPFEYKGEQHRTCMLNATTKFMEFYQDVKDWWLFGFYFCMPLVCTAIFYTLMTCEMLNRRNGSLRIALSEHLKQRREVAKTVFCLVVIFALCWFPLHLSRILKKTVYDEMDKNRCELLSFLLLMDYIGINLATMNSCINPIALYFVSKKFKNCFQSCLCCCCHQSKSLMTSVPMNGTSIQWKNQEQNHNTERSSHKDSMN

[2] = biological target: T1, Endothelin-1 receptor; test: Functional antagonism against ETA receptor in rat aortic rings expressed as pA2 value; conditions: read-out: pA2 (converted)

SMILES | IC50 [1] [nM] | Kb [2] [nM]
CCOc1ccc2c(c1)c(-c1ccc(OC)cc1)c(C(=O)O)c(=O)n2Cc1ccccc1OC | 1300 | –
COc1ccc(Cn2c(=O)c(C(=O)O)c(-c3ccc4c(c3)OCO4)c3ccccc32)cc1 | 2400 | –
O=C(O)c1c(-c2ccc3c(c2)OCO3)c2ccccc2n(Cc2ccccc2)c1=O | > 10000 | –
CCOc1ccc2c(c1)c(-c1ccc3c(c1)OCO3)c(C(=O)O)c(=O)n2Cc1ccccc1OC | 380 | –
CCOc1ccc2c(c1)c(-c1ccc3c(c1)OCO3)c(C(=O)O)n2Cc1ccc(OC)cc1 | 130000 | 398
CCOc1ccc2c(c1)c(-c1ccc(OC)cc1OC)c(C(=O)O)c(=O)n2Cc1ccccc1OC | 1200 | –
COc1ccccc1Cn1c(=O)c(C(=O)O)c(-c2ccc3c(c2)OCO3)c2ccccc21 | 2000 | –
O=C(O)c1c(-c2ccc3c(c2)OCO3)c2ccccc2n(Cc2ccc3c(c2)OCO3)c1=O | 2600 | –
CCc1ccc2c(c1)c(-c1ccc3c(c1)OCO3)c(C(=O)O)c(=O)n2Cc1ccccc1OC | 1500 | –
COc1ccccc1Cn1c(=O)c(C(=O)O)c(-c2ccc3c(c2)OCO3)c2c(OC)c(OC)ccc21 | 3300 | –
COc1ccccc1Cn1c(=O)c(CC(=O)O)c(-c2ccc3c(c2)OCO3)c2ccccc21 | > 10000 | –
COc1cccc(Cn2c(=O)c(C(=O)O)c(-c3ccc4c(c3)OCO4)c3ccccc32)c1 | > 10000 | –
CCOc1ccc2c(c1)c(-c1ccc(OC)cc1)c(C(=O)O)c(=O)n2Cc1cc(OC)ccc1OC | 260 | 6310
